US20150191484A1, “NOVEL COMPOUNDS HAVING A TETRACYCLIC IRIDOID SKELTON AND AN ANTI-TRYPANOSOMAL AGENT COMPRISING THE SAME AS AN ACTIVE INGREDIENT” (NATIONAL UNIVERSITY CORPORATION TOKYO MEDICAL AND DENTAL …, priority 2014, published 2015)

Assays:
U937 (leukemia) = experiment: MTT cytotoxicity assay, U937; type: cell-based, human; settings: IC50 against U937 / IC50 against T. brucei
Protocol: (§1) The cytotoxic activity of natural products against mammalian cells is an important point in the search for active compounds with biological activity. […] In order to confirm the selective and potent anti-trypanosomal activity of ML-2-2 and ML-2-3, we examined their cytotoxicity in a panel of human cell lines including two human fibroblastic and 8 human cancer-derived cell lines. Cells were seeded in 96-well microplates and incubated with ML-2-2 and ML-2-3 for 48 h at 37° C. in a 5% CO2 humidified incubator. The viabilities of cells were determined with the MTT (3-(4,5-dimethylthiazol-2-yl)-2-5-diphenyltetrazolium bromide) assay. The selectivity index (SI) was determined using the following equation: IC50 against human cells/IC50 against T. brucei. The IC50 values of ML-2-3 were higher than those of ML-2-2 in all the cell lines examined. […] The SI of ML-2-2 indicates values below 1.00 in most cell lines. On the other hand, SI values of ML-2-3 were much higher than those of ML-2-2 in all tested cell lines.

[1] = MTT cytotoxicity assay, U937; type: cell-based, human; settings: human, U937 leukemia cells; U937 leukemia, 48 h, MTT
Protocol: as §1

HL-60 (leukemia) = experiment: MTT cytotoxicity assay, HL-60; type: cell-based, human; settings: IC50 against HL-60 / IC50 against T. brucei
Protocol: as §1

[2] = MTT cytotoxicity assay, HL-60; type: cell-based, human; settings: human, HL-60 leukemia cells; HL-60 leukemia, 48 h, MTT
Protocol: as §1

HCT-15 (colon cancer) = experiment: MTT cytotoxicity assay, HCT-15; type: cell-based, human
Protocol: as §1

[3] = MTT cytotoxicity assay, HCT-15; type: cell-based, human; settings: human, HCT-15 colon cancer cells; HCT-15 colon cancer, 48 h, MTT
Protocol: as §1

Caco2 (colon cancer) = experiment: MTT cytotoxicity assay, Caco2; type: cell-based, human; settings: IC50 against Caco2 / IC50 against T. brucei
Protocol: as §1

[4] = MTT cytotoxicity assay, Caco2; type: cell-based, human; settings: human, Caco2 colon cancer cells; Caco2 colon cancer, 48 h, MTT
Protocol: as §1

various human cells = experiment: MTT cytotoxicity, panel of human cell lines (summary); type: cell-based; settings: IC50 against human cells / IC50 against Trypanosoma
From the text: ML-2-3 has low cytotoxicity on mammalian cells. The cytotoxicity of ML-2-3 is very low compared to the cytotoxicity of ML-2-2. The cytotoxicity of ML-2-2 and ML-2-3 on mammalian cells can be compared as IC50 value. The usefulness of the compounds for a therapeutic agent for mammals including humans can be compared by a selectivity index (SI). For a compound to be accepted as a useful therapeutic agent for mammals means that the compound should have high anti-trypanosomal activity but low cytotoxicity on mammals. The selectivity index (SI) is represented by an equation: IC50 of cytotoxicity on mammalian cells/IC50 of anti-trypanosomal activity. In particular, it is represented by an equation: IC50 against human cells/IC50 against Trypanosoma such as Trypanosoma brucei. […] IC50 (μM) of ML-2-3 against HF-19 and HCT-15 is more than 50, which means that ML2-3 is non-toxic at the highest assayed dose in HF-19 and HCT-15. […]
The cytotoxic activity of natural products against mammalian cells is an important point in the search for active compounds with biological activity. […] The viabilities of cells were determined with the MTT (3-(4,5-dimethylthiazol-2-yl)-2-5-diphenyltetrazolium bromide) assay. The selectivity index (SI) was determined using the following equation: IC50 against human cells/IC50 against T. brucei. […]

Trypanosoma cells = experiment: Immunohistochemistry / immuno-fluorescence analysis (anti-α tubulin, DAPI); type: cell-based, Trypanosoma brucei brucei; settings: 15 μM (four times of IC50)
Protocol: The GUTat 3.1 strain of the bloodstream forms of T. b. brucei parasites was used for this study. Parasites were cultured in vitro according to the conditions established by Yabu et al, 1998.
Parasites were used when they reached a confluent concentration of 1×10^6 parasites/ml. Estimation of parasitemia was done with the Neubauer's counting chamber. Parasites were diluted to a concentration of 3×10^5 parasites/ml with HMI-9 medium and used for the various experiments.
Immunohistochemistry was performed to detect any morphological or phenotypic changes which may be caused by extracts/compounds with trypanocidal effect. The initial steps of immunohistochemistry are the same as that for the Cell Cycle Assay. After fixing the parasites at −20° C. for an hour, 500 μl of the fixed parasites were transferred to an 8-chamber slide. The parasites were incubated at 4° C. overnight to allow the fixed parasites to adhere to the slide surface. The 70% EtOH was then discarded completely. 500 μl of PBS was added to each chamber and incubated for 5 min, after which PBS was discarded. The parasites were further washed with 500 μl of PBST (0.01% Triton X 100 in PBS) for 5 min and the washing solution discarded. 500 μl of blocking reagent (3% BSA in PBST) was added to the chamber and incubated for 30 min at room temperature, after which the blocking reagent was discarded. Each chamber was filled with 500 μl Anti-α tubulin antibody and incubated for 1 hour. The antibody was then discarded and the parasites were incubated with 500 μl of DAPI (5 μg/ml DAPI in PBS) for 10 min in the dark. The wells were washed twice with 500 μl of PBS and once with 500 μl of PBST. The 8-chamber block was detached from the slide and a few drops of parmafluor mounting reagent were put on the slide. The slide was covered carefully with a cover slip. The covered slide was allowed to dry in the dark and the edge of the cover slip sealed with clear nail varnish. The slide was observed under the Olympus fluorescent microscope.

[5] = test system: NB1RGB (normal fibroblast); experiment: MTT cytotoxicity assay, NB1RGB; type: cell-based, human; settings: IC50 against NB1RGB / IC50 against T. brucei
Protocol: as §1

[6] = MTT cytotoxicity assay, NB1RGB; type: cell-based, human; settings: human, NB1RGB normal fibroblast cells; NB1RGB normal fibroblast, 48 h, MTT
Protocol: as §1

Jurkat (leukemia) = experiment: MTT cytotoxicity assay, Jurkat; type: cell-based, human; settings: IC50 against Jurkat / IC50 against T. brucei
Protocol: as §1

[7] = MTT cytotoxicity assay, Jurkat; type: cell-based, human; settings: human, Jurkat leukemia cells; Jurkat leukemia, 48 h, MTT
Protocol: as §1

Q: What does the source list for `COc1cc(/C=C2/C(=O)O[C@]34C=C[C@@H]5C(C(=O)O)=CO[C@H](O[C@@H]23)[C@@H]54)ccc1O` [ML-2-3, (3aS,4aR,4a^1S,7aS,9aS,3E)-3-(4-hydroxy-3-methoxybenzylidene)-2-oxo-2,3,3a,4a,4a^1,7a-hexahydro-1,4,5-trioxadicyclopenta[a,hi]indene-7-carboxylic acid]?
A: SI (selectivity index) (U937 (leukemia)): 3.21; IC50 at 48 h [1]: 12 µM; SI (selectivity index) (HL-60 (leukemia)): 6.81; IC50 at 48 h [2]: 25.5 µM; cytotoxicity (in words) (HCT-15 (colon cancer); HCT-15, highest assayed dose): non-toxic at the highest assayed doses; SI (selectivity index) (HCT-15 (colon cancer); IC50 against HCT-15 / IC50 against T. brucei): >13.33; IC50 at 48 h [3]: > 50 µM; SI (selectivity index) (Caco2 (colon cancer)): 11.88; IC50 at 48 h [4]: 44.6 µM; selectivity index (SI), range over the human cell lines (various human cells): ≥ 3.2 to more than 13; expression of α-tubulin (Trypanosoma cells): significantly suppressed; flagellum phenotype (Trypanosoma cells): no flagellum phenotype; nuclear fragmentation (Trypanosoma cells): clearly induced the fragmented nuclei; SI (selectivity index) [5]: 9.96; IC50 at 48 h [6]: 37.4 µM; SI (selectivity index) (Jurkat (leukemia)): 3.31; IC50 at 48 h [7]: 12.4 µM
